Test results as given in article PMC4319564 (Journal of materials chemistry. B, Materials for biology …, 2014).

Test system: PTX-resistant KB-V1 cervical cancer cells
Assay: Cytotoxicity, SRB assay
Assay type: cell-based
Details: 48 h incubation, 0.01-1000 nM, triplicate

In the case of CC(=O)O[C@H]1C(=O)[C@@]2(C)[C@H]([C@H](OC(=O)c3ccccc3)[C@]3(O)C[C@H](OC(=O)[C@H](O)[C@@H](NC(=O)c4ccccc4)c4ccccc4)C(C)=C1C3(C)C)[C@]1(OC(C)=O)CO[C@@H]1C[C@@H]2O [PTX, paclitaxel], the “Toxicity (in words)” value is reported as “do not exert any toxicity”.
